Data from patent US20260034063A1 (Opella Healthcare Group SAS, priority 2023, published 2026).

Legend:
[1] = tested on: Bacteria; Fungus and yeast; experiment: Preservative system efficacy test (PET), summary statements; format: cell-based; settings: for preservative system efficacy test (PET) results: in fexofenadine suspension with EDTA, Ph. Eur and USP criteria
Protocol: (§1) To generate the formulations, the parabens of the existing formulations were replaced with the tested putative paraben replacement. The formulation stayed otherwise the same. As such, all of the preservatives were tested in combination with EDTA.
(§2) Further studies to test use of potassium sorbate for efficacy as an antimicrobial preservative were carried out in the formula with potassium sorbate in order to confirm the minimum concentration of use and definition of the specification, furthering the American and European monographs, in order to meet the different regulatory requirements of the countries in which this new formula will be submitted. The stability studies were conducted for a period of 36 months.

[2] = Fraction of fexofenadine in zwitterion form at suspension pH; format: physicochemical; settings: pH between 5.8 and 7.0
Text: The conversion of anhydrous form to the zwitterion shape is controlled by the pH of the suspension, which is monitored throughout the manufacture of the product, and controlled by the addition of monobasic sodium phosphate buffers and dibasic sodium phosphate.

[3] = tested on: Bacteria; Fungus and yeast; experiment: Preservative efficacy test, criteria of the US Pharmacopoeia (USP <51>); format: cell-based; settings: American pharmacopoeia criteria
Protocol: as §1, §2

[4] = tested on: Bacteria; Fungus and yeast; experiment: Preservative efficacy test, criteria of the European pharmacopoeia (Ph. Eur 5.1.3); format: cell-based
Protocol: as §1, §2

[5] = stability studies conducted for 36 months
Protocol: as §2

CCCCCCCCCCCC[N+](C)(C)CCOc1ccccc1 [Domiphen bromide]
preservative system efficacy test (PET) results [1]: good

CC(C)(C(=O)O)c1ccc(C(O)CCCN2CCC(C(O)(c3ccccc3)c3ccccc3)CC2)cc1.Cl (stereo not drawn) [Fexofenadine, 4-[1-hydroxy-4-[4-(hydroxydiphenylmethyl)-1-piperidinyl]-butyl]-α,α-dimethyl benzeneacetic acid hydrochloride]
fexofenadine in the form of zwitterion [2]: 97%

C/C=C/C=C/C(=O)[O-].[K+] [Potassium sorbate]
point of failure (concentration) [3]: 0.10
point of failure (concentration) [4]: 0.3%
effective as preservative until (stability time) [5]: 36 months
concentration considered effective as a preservative ([1]; criteria of both pharmacopoeias, fexofenadine suspension with EDTA): 0.4%

O=C([O-])c1ccccc1.[Na+] [Sodium Benzoate, Sodium benzoate]
preservative system efficacy test (PET) results [1]: satisfactory
